Test results: BindingDB's records for doi:10.3109/14756366.2012.681651 (East China University of Science and Technology, 2013)

Target: Ribosomal protein S6 kinase alpha-3 (Homo sapiens, UniProt P51812)
Assay: RSK2 Inhibition Assay
Settings: pH 7.4; 25 °C
Description: The inhibition assays against RSK2 in vitro were determined by ADP Quest® (DiscoveRx) in 96-well flat-bottom plates according to the manufacturer's instructions [Lu et al., J. Med. Chem., 54:3564-3574]. The kinase (20 ng millipore) in 40 μL assay buffer (15 mM HEPES, pH 7.4, 20 mM NaCl, 1 mM EGTA, 0.02% Tween 20, 10 mM MgCl2, and 0.1 mg/mL BGG) containing 25 μM S6 peptide (AKRRRLSSLRA, Anaspec) was incubated for 20 min at room temperature with indicated concentrations of the compounds to be tested. Reactions were initiated by adding 10 μL of ATP to a final ATP concentration of 10 μM and terminated after 60 min at room temperature by adding 20 μL ADP Reagent A and 40 μL ADP Reagent B. Ro31-8220 was used as a positive control. Compounds dilutions were prepared from stock in DMSO and diluted with assay buffer for inhibition assay. The fluorescence signal detecting the amount of ADP produced as a result of enzyme activity was recorded on the Synergy™ 2 Multi-Mode Microplate Reader (BioTek) at an excitation wavelength of 530 nm and an emission wavelength of 590 nm at 30 min after the addition of the ADP Reagent B.

Chain of Ribosomal protein S6 kinase alpha-3 (P51812 whole entry): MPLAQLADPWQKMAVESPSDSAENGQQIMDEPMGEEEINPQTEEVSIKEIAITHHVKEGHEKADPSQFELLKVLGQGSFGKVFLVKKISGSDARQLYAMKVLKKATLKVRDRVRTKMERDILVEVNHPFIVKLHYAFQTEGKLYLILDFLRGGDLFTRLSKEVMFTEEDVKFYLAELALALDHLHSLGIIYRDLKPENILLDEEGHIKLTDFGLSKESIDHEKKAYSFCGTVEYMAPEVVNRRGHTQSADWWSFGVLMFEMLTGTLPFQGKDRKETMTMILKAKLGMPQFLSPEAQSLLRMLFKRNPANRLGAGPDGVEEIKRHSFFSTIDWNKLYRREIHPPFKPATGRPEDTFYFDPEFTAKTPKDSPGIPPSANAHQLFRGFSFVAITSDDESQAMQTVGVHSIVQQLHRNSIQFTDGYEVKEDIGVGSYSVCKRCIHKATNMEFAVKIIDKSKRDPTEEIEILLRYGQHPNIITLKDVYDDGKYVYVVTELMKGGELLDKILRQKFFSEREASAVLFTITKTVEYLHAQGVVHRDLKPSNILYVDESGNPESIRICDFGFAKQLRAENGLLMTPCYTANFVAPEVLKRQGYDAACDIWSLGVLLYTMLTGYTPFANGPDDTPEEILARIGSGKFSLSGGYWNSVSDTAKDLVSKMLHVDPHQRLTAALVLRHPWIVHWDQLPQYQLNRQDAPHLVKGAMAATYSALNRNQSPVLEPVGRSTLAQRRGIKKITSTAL

## O=C1NC(=S)NC(=O)C1=NNc1ccc(O)cc1 [5-(2-(4-Hydroxyphenyl)hydrazono)-dihydro-2-thioxopyrimidine-4,6(1H,5H)-dione (14)]
  IC50: 2.19 µM

## O=C1NC(=O)C(=NNc2ccc(N3CCOCC3)cc2)C(=O)N1 [5-(2-(4-Morpholinophenyl)hydrazono)pyrimidine-2,4,6(1H,3H,5H)-trione (13)]
  IC50: 5.11 µM

## O=C1NC(=O)C(=NNc2ccc(O)cc2)C(=O)N1 [5-(2-(4-Hydroxyphenyl)hydrazono)pyrimidine-2,4,6(1H,3H,5H)-trione (9)]
  IC50: 1.95 µM

## O=C1NC(=S)NC(=O)C1=NNc1ccc(N2CCOCC2)cc1 [5-(2-(4-Morpholinophenyl)hydrazono-dihydro-2-thioxopyrimidine-4,6(1H,5H)-dione (15)]
  IC50: 9.23 µM
